Read-outs that look alike come from different tables or passages of the source.
Tests used:
Slc: ddy male mice = settings: mouse, in vivo, po, 1 h
Protocol: The present test is a test for evaluating whether the test compound may disturb coordinated movement or not. Rotarod is an apparatus equipped with a rotating columnar bar whose diameter is 4 cm, in which a mouse is made to walk on the rotating bar, and the coordinated movement is evaluated from the result of walking (can walk or cannot walk). Slc: ddy male mice (purchased from Japan SLC, Inc., body weight: 20-30 g) were trained 3 hours before the test starts so that they could walk on a rotarod apparatus rotating with a speed of 12 rotations per minute for 5 minutes without falling. Only the mice which can walk in the training are used in the test. The test compound was orally administered to a group consisting of 5 mice. […] To control mice, 0.5% methylcellulose solution was administered as test compound, and the same test was also done. The coordinated movement was evaluated with the average of the five mice's walking time (second).

BALB/c-Scn1a<+/−> mice = assay: Anticonvulsant effect in mouse model of Dravet syndrome with febrile seizures; type: in vivo; settings: oral; for Difference of the threshold temperature of convulsion from that of the control group: at the dose for anticonvulsive effect, hyperthermia 50 minutes after dosing; for Dose for anticonvulsive effect: dose needed to raise the threshold body temperature for inducing febrile seizures significantly compared with the control group
From the text: This is a test for evaluating the anticonvulsant effect for febrile seizures of the test compounds in a mouse model of Dravet syndrome. In this test, BALB/c-Scn1a<+/−> mice were used (catalog number: RBRC06422; they are available from RIKEN BioResource Research Center via the National BioResource Project). The present mouse model having a mutation in a responsible gene for Dravet syndrome, Scn1A, presents with symptoms similar to febrile seizures caused by hyperthermia which is a symptom in a patient suffering from Dravet syndrome, and can be used as an animal model of spontaneous Dravet syndrome (for reference: the Japan Epilepsy Research Foundation, Annual Report 2015: 26: 69-76). To male mice model of Dravet syndrome (one group: 5-8 mice, body weight: 20-30 g) were orally administered the test compound. 50 minutes later, the mice were put in a chamber warmed with hot bath to evoke hyperthermia, and observed about the development of febrile seizures. Immediately after febrile seizure was developed, the rectal temperature was measured and used as the threshold body temperature for inducing febrile seizures.

GABA(A) receptors = assay: Evaluation of the potentiating effect on GABA(A) receptors (electrophysiology, GABA(A) receptor expressing cells); type: cell-based; settings: for Inhibition rate to the increased electric current by adding flumazenil: 2 μM GABA and test compound with 10 μM flumazenil; for The potentiating effect on GABA(A) receptors EC20: concentration giving 20% increase of the current generated by 2 μM GABA
Protocol: Using GABA(A) receptor expressing cells prepared according to Guideline for Generation of Stable Cell Lines (website of Lonza Japan; Non-patent Literature 4), the present test is done for evaluating the potentiating effect of a drug on GABA(A) receptors based on the electric current raised by GABA. The GABA(A) receptor expressing cells were used in electrophysiological study, wherein the electric current was measured when 2 μM GABA solution and then a mixture of 2 μM GABA and the test compound were added to the cells. […] In addition, the electric current generated by a mixture of 2 μM GABA solution and the test compound with 10 μM flumazenil was measured, and the inhibition rate for the electric current by adding flumazenil was calculated compared to the electric current obtained in the absence of flumazenil.

For `CC(C)(C(N)=O)c1nc(-c2ccc(Br)cc2)no1` [Example 3, 2-[3-(4-bromophenyl)-1,2,4-oxadiazol-5-yl]-2-methylpropanamide], the “average of the five mice's walking time” value (Slc: ddy male mice; 100 mg/kg) was 180 s, the “Difference of the threshold temperature of convulsion from that of the control group” value (shortened to “Difference”) (BALB/c-Scn1a<+/−> mice) was 0.7 °C and the “Dose for anticonvulsive effect” value (BALB/c-Scn1a<+/−> mice) was 100 mg/kg. The “Inhibition rate to the increased electric current by adding flumazenil” value (GABA(A) receptors) was less than 0% and the “The potentiating effect on GABA(A) receptors EC20” value (GABA(A) receptors) was 29 µM.
`CC(C)(C(N)=O)c1noc(-c2ccc(Cl)cc2)n1` [Example 13, 2-[5-(4-chlorophenyl)-1,2,4-oxadiazol-3-yl]-2-methylpropanamide] was tested, and the “average of the five mice's walking time” value (Slc: ddy male mice; 100 mg/kg) was 180 s, the “Difference” value (BALB/c-Scn1a<+/−> mice) was 0.6 °C and the “Dose for anticonvulsive effect” value (BALB/c-Scn1a<+/−> mice) was 50 mg/kg. For the same compound, the “Inhibition rate to the increased electric current by adding flumazenil” value (GABA(A) receptors) was less than 0% and the “The potentiating effect on GABA(A) receptors EC20” value (GABA(A) receptors) was 71 µM.
`NC(=O)C1(c2nc(-c3ccc(F)cc3)no2)CC1` [Example 4, 1-[3-(4-fluorophenyl)-1,2,4-oxadiazol-5-yl]cyclopropane-1-carboxamide] was tested, and the “average of the five mice's walking time” value (Slc: ddy male mice; 100 mg/kg) was 180 s and the “The potentiating effect on GABA(A) receptors EC20” value (GABA(A) receptors) was greater than 100 µM.
With `CC(C)(c1nc(-c2ccc(F)cc2)no1)S(N)(=O)=O` [Example 17, 2-[3-(4-Fluorophenyl)-1,2,4-oxadiazol-5-yl]propane-2-sulfonamide] the “average of the five mice's walking time” value (Slc: ddy male mice; 100 mg/kg) was 180 s and the “The potentiating effect on GABA(A) receptors EC20” value (GABA(A) receptors) was 45 µM.
For `CN1C(=O)CC(=O)N(c2ccccc2)c2cc(Cl)ccc21` [clobazam, reference compound], the “Inhibition rate to the increased electric current by adding flumazenil” value (GABA(A) receptors) was 88%, the “The potentiating effect on GABA(A) receptors EC20” value (GABA(A) receptors) was 0.34 µM and the “inhibition of the potentiating effect on GABA(A) receptors with flumazenil (in words)” value (GABA(A) receptors; flumazenil, benzodiazepine antagonist) was “strongly inhibited”.
For `CC(C)(c1noc(-c2ccc(Cl)cc2)n1)S(N)(=O)=O` [Example 20, 2-[5-(4-chlorophenyl)-1,2,4-oxadiazol-3-yl]propane-2-sulfonamide], the “average of the five mice's walking time” value (Slc: ddy male mice; 100 mg/kg) was 180 s, the “Difference” value (BALB/c-Scn1a<+/−> mice) was 0.6 °C and the “Dose for anticonvulsive effect” value (BALB/c-Scn1a<+/−> mice) was 100 mg/kg. For the same compound, the “Inhibition rate to the increased electric current by adding flumazenil” value (GABA(A) receptors) was 55% and the “The potentiating effect on GABA(A) receptors EC20” value (GABA(A) receptors) was 20 µM.
`CC(C)(c1nnc(-c2ccc(Cl)cc2)o1)S(N)(=O)=O` [Example 23, 2-[5-(4-chlorophenyl)-1,3,4-oxadiazol-2-yl]propane-2-sulfonamide] was tested, and the “average of the five mice's walking time” value (Slc: ddy male mice; 100 mg/kg) was 180 s and the “The potentiating effect on GABA(A) receptors EC20” value (GABA(A) receptors) was 190 µM.
In the case of `CC(C)(c1nc(-c2ccc(Br)cc2)no1)S(N)(=O)=O` [Example 19, 2-[3-(4-bromophenyl)-1,2,4-oxadiazol-5-yl]propane-2-sulfonamide], the “average of the five mice's walking time” value (Slc: ddy male mice; 100 mg/kg) is reported as 180 s and the “The potentiating effect on GABA(A) receptors EC20” value (GABA(A) receptors) is reported as 34 µM.
For `CC(C)(c1nnc(-c2ccc(Br)cc2)o1)S(N)(=O)=O` [Example 24, 2-[5-(4-bromophenyl)-1,3,4-oxadiazol-2-yl]propane-2-sulfonamide], the “average of the five mice's walking time” value (Slc: ddy male mice; 100 mg/kg) was 180 s and the “The potentiating effect on GABA(A) receptors EC20” value (GABA(A) receptors) was 86 µM.
`NC(=O)C1(c2nc(-c3ccc(Cl)cc3)no2)CCCC1` [Example 9, 1-[3-(4-chlorophenyl)-1,2,4-oxadiazol-5-yl]cyclopentane-1-carboxamide] was tested, and the “average of the five mice's walking time” value (Slc: ddy male mice; 100 mg/kg) was 180 s and the “The potentiating effect on GABA(A) receptors EC20” value (GABA(A) receptors) was 2.7 µM.
For `CC(C)(C(N)=O)c1noc(-c2ccc(F)cc2)n1` [Example 12, 2-[5-(4-fluorophenyl)-1,2,4-oxadiazol-3-yl]-2-methylpropanamide], the “average of the five mice's walking time” value (Slc: ddy male mice; 100 mg/kg) was 180 s and the “The potentiating effect on GABA(A) receptors EC20” value (GABA(A) receptors) was 234 µM.
With `NC(=O)C1(c2nc(-c3ccc(Cl)cc3)no2)CCC1` [Example 8, 1-[3-(4-chlorophenyl)-1,2,4-oxadiazol-5-yl]cyclobutane-1-carboxamide] the “average of the five mice's walking time” value (Slc: ddy male mice; 100 mg/kg) was 180 s and the “The potentiating effect on GABA(A) receptors EC20” value (GABA(A) receptors) was 3.2 µM.
For `NC(=O)C1(c2nc(-c3ccc(Cl)cc3)no2)CC(F)(F)C1` [Example 7, 1-[3-(4-chlorophenyl)-1,2,4-oxadiazol-5-yl]-3,3-difluorocyclobutane-1-carboxamide], the “average of the five mice's walking time” value (Slc: ddy male mice; 100 mg/kg) was 180 s and the “The potentiating effect on GABA(A) receptors EC20” value (GABA(A) receptors) was 5.4 µM.
For `NC(=O)C1(c2nc(-c3ccc(Cl)cc3)no2)CC(F)C1` (centres unmarked) [Example 6, 1-[3-(4-chlorophenyl)-1,2,4-oxadiazol-5-yl]-3-fluorocyclobutane-1-carboxamide], the “average of the five mice's walking time” value (Slc: ddy male mice; 100 mg/kg) was 180 s and the “The potentiating effect on GABA(A) receptors EC20” value (GABA(A) receptors) was 3.3 µM.
In the case of `CC(C)(c1nnc(-c2ccc(F)cc2)o1)S(N)(=O)=O` [Example 22, 2-[5-(4-fluorophenyl)-1,3,4-oxadiazol-2-yl]propane-2-sulfonamide], the “average of the five mice's walking time” value (Slc: ddy male mice; 100 mg/kg) is reported as 180 s and the “The potentiating effect on GABA(A) receptors EC20” value (GABA(A) receptors) is reported as greater than 300 µM.
For `NC(=O)C1(c2nc(-c3ccc(F)cc3)no2)CCOCC1` [Example 10, 4-[3-(4-fluorophenyl)-1,2,4-oxadiazol-5-yl]tetrahydro-2H-pyran-4-carboxamide], the “average of the five mice's walking time” value (Slc: ddy male mice; 100 mg/kg) was 180 s and the “The potentiating effect on GABA(A) receptors EC20” value (GABA(A) receptors) was 247 µM.
With `CC(C)(c1nc(-c2ccc(Cl)cc2)no1)S(N)(=O)=O` [Example 18, 2-[3-(4-chlorophenyl)-1,2,4-oxadiazol-5-yl]propane-2-sulfonamide] the “average of the five mice's walking time” value (Slc: ddy male mice; 100 mg/kg) was 180 s, the “Inhibition rate to the increased electric current by adding flumazenil” value (GABA(A) receptors) was less than 0% and the “The potentiating effect on GABA(A) receptors EC20” value (GABA(A) receptors) was 37 µM.
In the case of `CC(C)(C(N)=O)c1nc(-c2ccc(Cl)cc2)no1` [Example 2, 2-[3-(4-chlorophenyl)-1,2,4-oxadiazol-5-yl]-2-methylpropanamide], the “average of the five mice's walking time” value (Slc: ddy male mice; 100 mg/kg) is reported as 180 s, the “Difference” value (BALB/c-Scn1a<+/−> mice) is reported as 0.6 °C and the “Dose for anticonvulsive effect” value (BALB/c-Scn1a<+/−> mice) is reported as 50 mg/kg. For the same compound, the “Inhibition rate to the increased electric current by adding flumazenil” value (GABA(A) receptors) was less than 0% and the “The potentiating effect on GABA(A) receptors EC20” value (GABA(A) receptors) was 29 µM.
For `CC(C)(C(N)=O)c1nc(-c2ccc(F)cc2)no1` [Example 1, 2-[3-(4-Fluorophenyl)-1,2,4-oxadiazol-5-yl]-2-methylpropanamide], the “average of the five mice's walking time” value (Slc: ddy male mice; 100 mg/kg) was 180 s and the “The potentiating effect on GABA(A) receptors EC20” value (GABA(A) receptors) was 55 µM.
For `NC(=O)C1(c2nc(-c3ccc(Cl)cc3)no2)CC1` [Example 5, 1-[3-(4-chlorophenyl)-1,2,4-oxadiazol-5-yl]cyclopropane-1-carboxamide], the “average of the five mice's walking time” value (Slc: ddy male mice; 100 mg/kg) was 180 s and the “The potentiating effect on GABA(A) receptors EC20” value (GABA(A) receptors) was greater than 300 µM.
`CC(C)(C(N)=O)c1nnc(-c2ccc(Cl)cc2)o1` [Example 15, 2-[5-(4-chlorophenyl)-1,3,4-oxadiazol-2-yl]-2-methylpropanamide] was tested, and the “average of the five mice's walking time” value (Slc: ddy male mice; 100 mg/kg) was 180 s and the “The potentiating effect on GABA(A) receptors EC20” value (GABA(A) receptors) was greater than 300 µM.
With `CN1C(=O)CCC1c1nc(-c2ccc(F)cc2F)no1` (centres unmarked) [Example 26, 5-[3-(2,4-difluorophenyl)-1,2,4-oxadiazol-5-yl]-1-methylpyrrolidin-2-one] the “average of the five mice's walking time” value (Slc: ddy male mice; 50 mg/kg) was 180 s and the “The potentiating effect on GABA(A) receptors EC20” value (GABA(A) receptors) was greater than 100 µM.
For `CC(C)(c1noc(-c2ccc(Br)cc2)n1)S(N)(=O)=O` [Example 21, 2-[5-(4-bromophenyl)-1,2,4-oxadiazol-3-yl]propane-2-sulfonamide], the “average of the five mice's walking time” value (Slc: ddy male mice; 100 mg/kg) was 180 s and the “The potentiating effect on GABA(A) receptors EC20” value (GABA(A) receptors) was 9.6 µM.
In the case of `CC(C)(C(N)=O)c1noc(-c2ccc(Br)cc2)n1` [Example 14, 2-[5-(4-bromophenyl)-1,2,4-oxadiazol-3-yl]-2-methylpropanamide], the “average of the five mice's walking time” value (Slc: ddy male mice; 100 mg/kg) is reported as 180 s and the “The potentiating effect on GABA(A) receptors EC20” value (GABA(A) receptors) is reported as 32 µM.
`CN1C(=O)CCC1c1nc(-c2ccc(F)c(F)c2)no1` (centres unmarked) [Example 27, 5-[3-(3,4-difluorophenyl)-1,2,4-oxadiazol-5-yl]-1-methylpyrrolidin-2-one] was tested, and the “average of the five mice's walking time” value (Slc: ddy male mice; 50 mg/kg) was 180 s, the “Inhibition rate to the increased electric current by adding flumazenil” value (GABA(A) receptors) was less than 0% and the “The potentiating effect on GABA(A) receptors EC20” value (GABA(A) receptors) was 39 µM.
